pEC50, pIC50: −log10 of the molar value. Where a name gives a salt, the structure may show the parent alone. Read-outs that look alike come from different tables or passages of the source. Each block holds one molecule with its values, some of them ahead of it.
What was measured:
Format in all cases: cell-based
SMN2 mRNA = assay: Splicing RT-qPCR gene panel, SMN2 canonical junction (CJ) mRNA; conditions: Homo sapiens; Table 8; larger gene panel, decrease in CJ mRNA levels
Method: (§1) Compounds described herein were used to modulate RNA transcript abundance in cells. The expression of a target mRNA was measured by detecting the formation of an exon-exon junction in the canonical transcript (CJ). A compound mediated exon-inclusion event was detected by observing an increase in formation of a new junction with an alternative exon (AJ). Real-time qPCR assays were used to detect these splicing switches and interrogate the potency of various compounds towards different target genes. A high-throughput real time quantitative PCR (RT-qPCR) assay was developed to measure these two isoforms of the mRNA (CJ and AJ) for exemplary genes, such as HTT, SMN2, and MYB, together with a control housekeeping gene, GAPDH or GUSB or PPIA, used for normalization. Briefly, the A673 or K562 cell line was treated with various compounds described herein (e.g., compounds of Formula (I)). After treatment, the levels of the HTT, MYB, or SMN2 mRNA targets were determined from each sample of cell lysate by cDNA synthesis followed by qPCR.
(§2) The A673 cell line was cultured in DMEM with 10% FBS. Cells were diluted with full growth media and plated in a 96-well plate (15,000 cells in 100 ul media per well). The plate was incubated at 37° C. with 5% CO2 for 24 hours to allow cells to adhere. An 11-point 3-fold serial dilution of the compounds was made in DMSO then diluted in media in an intermediate plate. Compounds were transferred from the intermediate plate to the cell plate with the top dose at a final concentration of 10 uM in the well. Final DMSO concentration was kept at or below 0.25%. The cell plate was returned to the incubator at 37° C. with 5% CO2 for an additional 24 hours.
(§3) The K562 cell line was cultured in IMDM with 10% FBS. For K562, cells were diluted with full growth media and plated in either a 96-well plate (50,000 cells in 50 uL media per well) or a 384-well plate (8,000-40,000 cells in 45 uL media per well). An 11-point 3-fold serial dilution of the compounds were made in DMSO then diluted in media in an intermediate plate. Compound was transferred from the intermediate plate to the cell plate with the top dose at a final concentration of 10 uM in the well. Final DMSO concentration was kept at or below 0.25%. Final volume was 100 uL for 96-well plate and 50 uL for 384-well plate. The cell plate was then placed in an incubator at 37° C. with 5% CO2 for 24 hours.
(§4) The cells were then gently washed with 50 uL-100 uL cold PBS before proceeding to addition of lysis buffer. 30 uL-50 uL of room temperature lysis buffer with DNAse I (and optionally RNAsin) was added to each well. Cells were shaken/mixed thoroughly at room temperature for 5-10 minutes for lysis to take place and then 3 uL-5 uL of room temperature stop solution was added and wells were shaken/mixed again. After 2-5 minutes, the cell lysate plate was transferred to ice for RT-qPCR reaction setup. The lysates could also be frozen at-80° C. for later use.
(§5) In some cases, a direct lysis buffer was used. An appropriate volume of 3× lysis buffer (10 mM Tris, 150 mM NaCl, 1.5%-2.5% Igepal and 0.1-1 U/uL RNAsin, pH 7.4) was directly added to either K562 or A673 cells in media and mixed by pipetting 3 times. The plates were then incubated at room temperature with shaking/rocking for 20-50 minutes to allow for lysis to take place. After this time, the cell lysate plate was transferred to ice to set up for the RT-qPCR reactions. The lysates could also be frozen at −80° C. for later use.
(§6) To set up 10 uL RT-qPCR reactions, cell lysates were transferred to 384-well qPCR plates containing the master mix according to the table below. The plates were sealed, gently vortexed, and spun down before the run. The volumes were adjusted accordingly in some instances where the reaction was carried in 20 μL. The table below summarizes the components of the RT-qPCR reactions:
(§7) The RT-qPCR reaction was performed using a QuantStudio (ThermoFisher) under the following fast cycling conditions. […]

Target C mRNA = assay: Splicing RT-qPCR gene panel, Target C canonical junction (CJ) mRNA; conditions: Homo sapiens; Table 8; larger gene panel, decrease in CJ mRNA levels
Method: as §1, §2, §3, §4, §5, §6, §7

HTT mRNA = assay: Splicing RT-qPCR assay, HTT canonical (CJ) and alternative (AJ) junction mRNA; conditions: Homo sapiens; for pEC50: AC50 = 50% response in AJ mRNA increase
Method: as §1, §2, §3, §4, §5, §6, §7

MYB mRNA = assay: Splicing RT-qPCR assay, MYB canonical (CJ) and alternative (AJ) junction mRNA; conditions: Homo sapiens; for pEC50: AC50 = 50% response in AJ mRNA increase
Method: as §1, §2, §3, §4, §5, §6, §7

[1] = Table 7, RT-qPCR, A673 or K562 cells, 24 hours treatment
[2] = Table 7, IC50 = 50% response in CJ mRNA decrease, RT-qPCR, A673 or K562 cells, 24 hours treatment, read-out: HTT CJ
[3] = Table 8, larger gene panel, decrease in CJ mRNA levels, read-out: HTT CJ IC50
[4] = Table 7, IC50 = 50% response in CJ mRNA decrease, RT-qPCR, A673 or K562 cells, 24 hours treatment, read-out: MYB CJ
[5] = Table 8, larger gene panel, decrease in CJ mRNA levels, read-out: MYB CJ IC50

pIC50 (SMN2 mRNA): > 7.00
pIC50 (Target C mRNA): 6.00 to 7.00
pIC50 (HTT mRNA; [3]): 6.00 to 7.00
pIC50 (MYB mRNA; [5]): 6.00 to 7.00
SMILES: CN1CC2(C1)CN(c1cc3sc(-c4cc(F)c5nn(C)cc5c4)nc3s1)C2 [Compound 146, 7-fluoro-2-methyl-5-(5-[6-methyl-2,6-diazaspiro[3.3]heptan-2-yl]thieno[2,3-d][1,3]thiazol-2-yl)indazole]

pIC50 (SMN2 mRNA): > 7.00
pIC50 (Target C mRNA): > 7.00
pEC50 (HTT mRNA; [1]): > 7.00
pIC50 (HTT mRNA; [2]): > 7.00
pIC50 (HTT mRNA; [3]): > 7.00
pEC50 (MYB mRNA; [1]): > 7.00
pIC50 (MYB mRNA; [4]): > 7.00
pIC50 (MYB mRNA; [5]): > 7.00
SMILES: COc1c(-c2nc3sc(C4CCNCC4)cc3s2)cc2cn(C)nc2c1F [Compound 242, 7-fluoro-6-methoxy-2-methyl-5-[5-(piperidin-4-yl)thieno[2,3-d][1,3]thiazol-2-yl]indazole]

pIC50 (SMN2 mRNA): > 7.00
pIC50 (Target C mRNA): 6.00 to 7.00
pEC50 (HTT mRNA; [1]): > 7.00
pIC50 (HTT mRNA; [2]): > 7.00
pIC50 (HTT mRNA; [3]): > 7.00
pEC50 (MYB mRNA; [1]): 6.00 to 7.00
pIC50 (MYB mRNA; [4]): 6.00 to 7.00
pIC50 (MYB mRNA; [5]): 6.00 to 7.00
SMILES: Cc1cn2cc(-c3nc4sc(C5CCNCC5)cc4s3)cc(C)c2n1 [Compound 140, 4-(2-[2,8-dimethylimidazo[1,2-a]pyridin-6-yl]thieno[2,3-d][1,3]thiazol-5-yl)piperidine hydrochloride]

pIC50 (SMN2 mRNA): > 7.00
pIC50 (Target C mRNA): 6.00 to 7.00
pEC50 (HTT mRNA; [1]): > 7.00
pIC50 (HTT mRNA; [2]): 6.00 to 7.00
pIC50 (HTT mRNA; [3]): > 7.00
pEC50 (MYB mRNA; [1]): 6.00 to 7.00
pIC50 (MYB mRNA; [4]): 6.00 to 7.00
pIC50 (MYB mRNA; [5]): 6.00 to 7.00
SMILES: Cn1cc2cc(-c3cc4sc(C5CCNCC5)nc4s3)cc(F)c2n1 [Compound 124, 7-fluoro-2-methyl-5-[2-(piperidin-4-yl)thieno[2,3-d][1,3]thiazol-5-yl]indazole]

The remaining lines, values behind:

SMILES: CC1CN(c2cc3sc(-c4cc(F)c5nn(C)cc5c4)nc3s2)CCN1 (stereo not drawn) [Compound 135, 7-fluoro-2-methyl-5-[5-(3-methylpiperazin-1-yl)thieno[2,3-d][1,3]thiazol-2-yl]indazole]
pIC50 (SMN2 mRNA): > 7.00
pIC50 (Target C mRNA): 6.00 to 7.00
pEC50 (HTT mRNA; [1]): 6.00 to 7.00
pIC50 (HTT mRNA; [2]): 6.00 to 7.00
pIC50 (HTT mRNA; [3]): 6.00 to 7.00
pEC50 (MYB mRNA; [1]): 6.00 to 7.00
pIC50 (MYB mRNA; [4]): 6.00 to 7.00
pIC50 (MYB mRNA; [5]): 6.00 to 7.00

SMILES: CN(C)C1CCN(c2cc3sc(-c4cc(F)c5nn(C)cc5c4)nc3s2)CC1 [Compound 154, 1-[2-(7-fluoro-2-methylindazol-5-yl)thieno[2,3-d][1,3]thiazol-5-yl]-N,N-dimethylpiperidin-4-amine]
pIC50 (SMN2 mRNA): > 7.00
pIC50 (Target C mRNA): 6.00 to 7.00
pEC50 (HTT mRNA; [1]): 6.00 to 7.00
pIC50 (HTT mRNA; [2]): 6.00 to 7.00
pIC50 (HTT mRNA; [3]): 6.00 to 7.00
pEC50 (MYB mRNA; [1]): 6.00 to 7.00
pIC50 (MYB mRNA; [4]): 6.00 to 7.00
pIC50 (MYB mRNA; [5]): 6.00 to 7.00

SMILES: Cn1cc2cc(-c3nc4sc([C@H]5CCNC[C@H]5F)cc4s3)cc(F)c2n1 [Compound 240, 7-fluoro-5-{5-[(3S,4S)-3-fluoropiperidin-4-yl]thieno[2,3-d][1,3]thiazol-2-yl}-2-methylindazole]
pIC50 (SMN2 mRNA): 6.00 to 7.00
pIC50 (Target C mRNA): < 5.00
pEC50 (HTT mRNA; [1]): 5.00 to 6.00
pIC50 (HTT mRNA; [2]): 5.00 to 6.00
pIC50 (HTT mRNA; [3]): 5.00 to 6.00
pEC50 (MYB mRNA; [1]): 5.00 to 6.00
pIC50 (MYB mRNA; [4]): 5.00 to 6.00
pIC50 (MYB mRNA; [5]): 5.00 to 6.00

SMILES: CN1CCC(N(C)c2cc3sc(-c4cc(F)c5nn(C)cc5c4)nc3s2)CC1 [Compound 145, N-[2-(7-fluoro-2-methylindazol-5-yl)thieno[2,3-d][1,3]thiazol-5-yl]-N,1-dimethylpiperidin-4-amine]
pIC50 (SMN2 mRNA): 6.00 to 7.00
pIC50 (Target C mRNA): < 5.00
pEC50 (HTT mRNA; [1]): < 5.00
pIC50 (HTT mRNA; [2]): < 5.00
pIC50 (HTT mRNA; [3]): < 5.00
pEC50 (MYB mRNA; [1]): 5.00 to 6.00
pIC50 (MYB mRNA; [4]): 5.00 to 6.00
pIC50 (MYB mRNA; [5]): 5.00 to 6.00

From patent US20250109140A1, “5-[5-(PIPERIDIN-4-YL)THIENO[3,2-C]PYRAZOL-2-YL]INDAZOLE DERIVATIVES AND RELATED COMPOUNDS AS MODULATORS FOR SPLICING NUCLEIC ACIDS AND FOR THE TREATMENT OF PROLIFERATIVE DISEASES” (REMIX THERAPUTICS INC., priority 2022, published 2025)
